Measured values as given in ChEMBL document CHEMBL4732083, “Synthesis and anti-inflammatory activity of saponin derivatives of δ-oleanolic acid” (Eur J Med Chem, 2021).
Active and inactive are the calls of the source. The rule behind the calls is not given here.

What was measured:
[1] = biological target: AMP-activated protein kinase, AMPK (Homo sapiens) (UniProt P54646+O43741+P54619+Q9UGJ0+Q9Y478+Q13131+Q9UGI9); test: Activation of AMPK in human Huh-7 cells assessed as increase in AMPK phosphorylation at Thr172 residue at 10 uM measured after 12 hrs by Western blot analysis; assay type: cell-based; details: filed as activator
THP-1 [2] = test: Antiinflammatory activity in human THP-1 cells assessed as reduction in LPS-induced TNF alpha secretion at 10 uM incubated for 12 hrs measured by ELISA; assay type: functional, cell-based
THP-1 [3] = test: Antiinflammatory activity in human THP-1 cells assessed as reduction in LPS-induced IL6 secretion at 10 uM incubated for 12 hrs measured by ELISA; assay type: functional, cell-based
[4] = AUC (0 to t) in BALB/c mouse at 10 mg/kg, po by LC/MS-MS analysis; assay type: ADME, organism-based; set-up: dose 10 mg/kg; details: in vivo
[5] = Half life in BALB/c mouse at 10 mg/kg, po by LC/MS-MS analysis; assay type: ADME, organism-based; details: in vivo
[6] = Cmax in BALB/c mouse at 2 mg/kg, iv by LC/MS-MS analysis; assay type: ADME, organism-based; set-up: route intravenous, dose 2 mg/kg; details: in vivo
[7] = AUC (0 to infinity) in BALB/c mouse at 2 mg/kg, iv by LC/MS-MS analysis; assay type: ADME, organism-based; set-up: route intravenous, time infinity, dose 2 mg/kg; details: in vivo
[8] = AUC (0 to t) in BALB/c mouse at 2 mg/kg, iv by LC/MS-MS analysis; assay type: ADME, organism-based; set-up: dose 2 mg/kg; details: in vivo
[9] = Bioavailability in BALB/c mouse at 10 mg/kg, po by LC/MS-MS analysis; assay type: ADME, organism-based; details: in vivo
[10] = Tmax in BALB/c mouse at 10 mg/kg, po by LC/MS-MS analysis; assay type: ADME, organism-based; details: in vivo
[11] = Tmax in BALB/c mouse at 2 mg/kg, iv by LC/MS-MS analysis; assay type: ADME, organism-based; details: in vivo
[12] = Metabolic stability in mouse liver microsomes assessed as half life in presence of NADPH by LC-MS analysis; assay type: ADME, Microsome
[13] = Half life in BALB/c mouse at 2 mg/kg, iv by LC/MS-MS analysis; assay type: ADME, organism-based; details: in vivo
[14] = Cmax in BALB/c mouse at 10 mg/kg, po by LC/MS-MS analysis; assay type: ADME, organism-based; set-up: route oral, dose 10 mg/kg; details: in vivo
[15] = Metabolic stability in human liver microsomes assessed as intrinsic clearance in presence of NADPH by LC-MS analysis; assay type: ADME, Microsome; details: read-out: CLH
[16] = Metabolic stability in human liver microsomes assessed as half life in presence of NADPH by LC-MS analysis; assay type: ADME, Microsome
[17] = AUC (0 to infinity) in BALB/c mouse at 10 mg/kg, po by LC/MS-MS analysis; assay type: ADME, organism-based; set-up: route oral, time infinity, dose 10 mg/kg; details: in vivo
[18] = Metabolic stability in mouse liver microsomes assessed as intrinsic clearance in presence of NADPH by LC-MS analysis; assay type: ADME, Microsome; details: read-out: CLH

C[C@H]1[C@H](C)CC[C@]2(C(=O)O)CC[C@]3(C)C(=CC[C@@H]4[C@@]5(C)C[C@@H](O)[C@H](O)[C@@](C)(CO)[C@@H]5CC[C@]43C)[C@H]12
Activity [1]: Active

CC1(C)[C@@H](O)CC[C@]2(C)[C@H]3C(=O)C=C4[C@@H]5C[C@@](C)(C(=O)O)CC[C@]5(C)CC[C@@]4(C)[C@]3(C)CC[C@@H]12
Activity [1]: Active

CC1(C)CC[C@]2(C(=O)O)CC[C@]3(C)C(=CC[C@@H]4[C@@]5(C)C[C@@H](O)[C@H](O)C(C)(C)[C@@H]5CC[C@]43C)[C@@H]2C1
Activity [1]: Active

CC1(C)CC[C@]2(C(=O)O[C@@H]3O[C@H](CO[C@@H]4O[C@H](CO)[C@@H](O)[C@H](O)[C@H]4O)[C@@H](O)[C@H](O)[C@H]3O)CC[C@]3(C)C(=CC[C@@H]4[C@@]5(C)CC[C@H](O[C@@H]6OC[C@H](O)[C@H](O)[C@H]6O)[C@@](C)(CO)[C@@H]5CC[C@]43C)[C@@H]2C1
Activity [1]: Active

CC1(C)CC[C@]2(C(=O)O)CC[C@]3(C)C(=CC[C@@H]4[C@@]5(C)CC[C@H](O[C@@H]6O[C@H](C(=O)O)[C@@H](O)[C@H](O[C@@H]7OC[C@@H](O)[C@H](O)[C@H]7O)[C@H]6O)C(C)(C)[C@@H]5CC[C@]43C)[C@@H]2C1
Activity [1]: Active

CC1(C)CC[C@]2(C(=O)O)CC[C@]3(C)C(=C2C1)CC[C@@H]1[C@@]2(C)CC[C@H](O[C@@H]4OC[C@H](O)[C@H](O)[C@H]4O[C@@H]4O[C@H](CO)[C@@H](O)[C@H](O)[C@H]4O)C(C)(C)[C@@H]2CC[C@]13C
Activity (THP-1 [2]): Active | Activity (THP-1 [3]): Active

CC1(C)CC[C@]2(C(=O)O)CC[C@]3(C)C(=C2C1)CC[C@@H]1[C@@]2(C)CC[C@H](O[C@@H]4OC[C@H](O)[C@H](O)[C@H]4O[C@@H]4OC[C@@H](O)[C@H](O)[C@H]4O)C(C)(C)[C@@H]2CC[C@]13C
AUC(0-t) [4]: 145 ng·h/mL | half-life [5]: 1.26 h | Cmax [6]: 8820 ng/mL | AUC(0-inf) [7]: 2590 ng·h/mL | AUC(0-t) [8]: 2570 ng·h/mL | bioavailability [9]: 1.13% | Tmax [10]: 0.75 h | Tmax [11]: 4.8 min | half-life [12]: > 2 h | half-life [13]: 2.25 h | Cmax [14]: 54.2 ng/mL | CLint scaled [15]: 3.25 mL/min/kg | half-life [16]: > 2 h | AUC(0-inf) [17]: 151 ng·h/mL | CLint scaled [18]: 2.34 mL/min/kg

C[C@H]1[C@H](C)CC[C@]2(C(=O)O)CC[C@]3(C)C(=CC[C@@H]4[C@@]5(C)C[C@@H](O)[C@H](O)C(C)(C)[C@@H]5CC[C@]43C)[C@H]12
Activity [1]: Active

C[C@@H]1CC[C@]2(C(=O)O)CC[C@]3(C)C(=CC[C@@H]4[C@@]5(C)CC[C@H](O[C@@H]6OC[C@H](O)[C@H](O)[C@H]6O)C(C)(C)[C@@H]5CC[C@]43C)[C@@H]2[C@]1(C)O
Activity [1]: Active

C=C(C)[C@@H]1CC[C@]2(C(=O)O)CC[C@]3(C)[C@H](CC[C@@H]4[C@@]5(C)CC[C@H](O)C(C)(C)[C@@H]5CC[C@]43C)[C@@H]12
Activity [1]: Active

C[C@H]1[C@H](C)CC[C@]2(C(=O)O)CC[C@]3(C)C(=CC[C@@H]4[C@@]5(C)C[C@@H](O)[C@H](O)[C@@](C)(CO)[C@@H]5[C@H](O)C[C@]43C)[C@H]12
Activity [1]: Active

C[C@@H]1O[C@@H](O[C@H]2[C@H](O[C@H]3CC[C@@]4(C)[C@@H](CC[C@]5(C)[C@@H]4CC=C4[C@@H]6CC(C)(C)CC[C@]6(C(=O)O[C@@H]6O[C@H](CO[C@@H]7O[C@H](CO)[C@@H](O[C@@H]8O[C@@H](C)[C@H](O)[C@@H](O)[C@H]8O)[C@H](O)[C@H]7O)[C@@H](O)[C@H](O)[C@H]6O)CC[C@]45C)[C@]3(C)CO)OC[C@H](O)[C@@H]2O)[C@H](O)[C@H](O)[C@H]1O
Activity [1]: Active
